Test results published in patent US20220370395A1, “ENHANCER OF PHOTODYNAMIC EFFECT IN ALA-PDT OR ALA-PDD” (SBI PHARMACEUTICALS CO., LTD., priority 2017, published 2022).

What was measured:
[1] = cited from earlier work
[2] = system: cancer cell strains DU145, HT29, HCC2998, MKN7, MDA-MB-231, MCF-7; experiment: Intracellular and extracellular PpIX amount in cancer cell strains, ALA plus serial dilutions of inhibitor (Examples 1, 3, 4, 5); format: cell-based; conditions: in combination with 1 mM ALA; for extracellular PpIX amount (corrected with amount of protein) / intracellular PpIX amount (corrected with amount of protein): cultured 4 hours, compared to ALA alone, six cancer cell strains
Excerpt: Six types of cells strains were employed as cancer cell strains: […], large intestine cancer cell strains (HT29, HCC2998), stomach cancer cell strain (MKN7), and mammary gland cancer cell strains (MDA-MB-231, MCF-7). For the medium, RPMI 1640 (from Wako) supplemented with 5% inactivated fetal bovine serum (FBS, from Biowest) was employed (hereinafter referred to as RPMI medium). Two types of inhibitors are known to exist for dynamin: one is an inhibitor that targets the GAS domain, whereas the other is an inhibitor that targets the PH domain. Iminodyn22 (from abcam) was used as the inhibitor that targets the GAS domain. Further, OcTMAB (from abcam) was used as the inhibitor that targets the PH domain.
To 1 mg of OcTMAB was added 255 μL of dimethyl sulfoxide (DMSO, from Wako), and this was mixed to make an OcTMAB 10 mM stock solution. Further, to 1 mg of Iminodyn22 was added 208 μL of DMSO, and this was mixed to make an Iminodyn22 10 mM stock solution. The OcTMAB 10 mM stock solution was diluted with the RPMI medium to adjust to 16 μM. The Iminodyn22 10 mM stock solution was diluted with the RPMI medium to adjust to 40 μM. The OcTMAB and Iminodyn22 prepared were each serially diluted with the RPMI medium to create six serial dilutions. Each of these dynamin inhibitor-containing medium was mixed with an equal amount of the RPMI medium comprising 2 mM aminolevulinic acid hydrochloride salt (ALA) to prepare ALA/OcTMAB and ALA/Iminodyn22-containing mediums.
Each cancer cell strain was seeded in a 96-well plate (black with transparent bottom; from Corning) at a density of 1.25×10^4 cells/well (only MDA-MB-231 was seeded at 2.0×10^4 cells/well), and this was cultured overnight at 37° C. After the overnight culture, the culture supernatant was removed, 200 μL each of ALA/OcTMAB-containing medium or ALA/Iminodyn22-containing medium described above were added to each well, and this was cultured for 4 hours under a 37° C. condition. After 4 hours, 100 μL of each culture supernatant were transferred to another 96-well plate, and this was set as the extracellular PpIX measuring plate. The remaining culture supernatant was removed, each cell strain was washed once with phosphate buffered saline (PBS, from Wako), and then 100 μL per well of 1% dodecyl sodium sulfate (SDS, from Wako) aqueous solution was added to dissolve the cells, and this was set as the intracellular PpIX measuring plate. Protoporphyrin IX standard sample (PpIX, from Funakoshi Co., Ltd.) was dissolved in DMSO solution to create 1 mM PpIX stock solution. The 1 mM PpIX stock solution was diluted with each of 1% SDS solution and RPMI medium, and PpIX standard solutions with final concentrations of 0-1000 nM were prepared. The PpIX standard solutions prepared with 1% SDS were added to unused wells in the intracellular accumulation PpIX measuring plate, and the standard solutions prepared with the RPMI medium were added to unused portions of the extracellular export PpIX measuring plate at 100 μL each. The fluorescence intensity of the intracellular PpIX measuring plate and the extracellular PpIX measuring plate was measured with a microplate reader (infinite M200PRO; from TECAN) under the condition of excitation light at 405 nm and measurement wavelength at 635 nm. After measurement, a standard curve was created from the fluorescence intensity of the PpIX standard solutions, and the amount of PpIX in each well was calculated from the standard curve.
In order to correct the amount of PpIX measured by the above method with the amount of protein, the amount of protein contained in each sample of the intracellular PpIX measuring plate was measured. Pierce™ BCA Protein Assay Kit (from Thermo Fisher) was used for measuring the amount of protein. BCA reagent A and BCA reagent B were mixed at a proportion of 50:1 to prepare the BCA reaction solution. […]

[3] = system: cancer cell strains DU145, HT29, HCC2998, MKN7, MDA-MB-231, MCF-7; experiment: Intracellular and extracellular PpIX amount, combination use of OcTMAB and FTC with ALA (Example 2); format: cell-based; conditions: final concentration ALA 1 mM, OcTMAB 8 μM, FTC 10 μM, 4 hours; compared between combination use groups
Experimental: Six types of cells strains were employed as cancer cell strains: […], large intestine cancer cell strains (HT29, HCC2998), stomach cancer cell strain (MKN7), and mammary gland cancer cell strains (MDA-MB-231, MCF-7). Fumitremorgin C (FTC, from sigma) was dissolved in DMSO to create a 2 mM stock solution, and then adjusted to 40 μM with the RPMI medium. For OcTMAB, the 10 mM stock solution was adjusted with the RPMI medium to 32 μM. The 40 μM FTC-containing RPMI medium was added to an equal amount of 32 μM OcTMAB-containing medium to prepare a 16 μM OcTMAB/20 μM FTC-containing medium. Note that FTC is an inhibitor of ABCG2 (a transporter that extracellularly exports PpIX), and is known as a compound that has the effect of inhibiting extracellular export of PpIX.
Each cancer cell strain was seeded in a 96-well plate (black with transparent bottom) at a density of 1.25×10^4 cells/well (only MDA-MB-231 was seeded at 2.0×10^4 cells/well), and this was cultured overnight at 37/C. After the overnight culture, the culture supernatant was removed, 100 μL each of 2 mM ALA-containing RPMI medium was added to each well. […]
In order to correct the above PpIX amount measurement result with the amount of protein, the amount of protein in each sample for measuring the intracellular PpIX amount was measured. […]

| SMILES | time until metabolized in vivo and excreted [1] [h] | inhibitor concentration at which the decrease of extracellular PpIX amount peaks ([2]; 4 hours) [µM] | inhibitor concentration at which the increase in the amount of PpIX accumulated peaks ([2]; 4 hours) [µM] | extracellular PpIX amount (corrected with amount of protein) [2] | intracellular PpIX amount (corrected with amount of protein) [2] | extracellular PpIX amount (PpIX extracellular export) [3] | intracellular PpIX amount [3] |
| --- | --- | --- | --- | --- | --- | --- | --- |
| NCC(=O)CCC(=O)O [ALA, 5-aminolevulinic acid] | ≤ 48 |  |  |  |  |  |  |
| O=c1[nH]c2ccccc2n1C1CCN(Cc2ccc(-c3nc4cc5nc[nH]c5cc4nc3-c3ccccc3)cc2)CC1 [Akt inhibitor VIII] |  | ~5 | ~5 | decrease of extracellular PpIX amount | increase in the amount of PpIX accumulated |  |  |
| CCCCCCCCCCCCCC[N+](C)(C)C.[Br-] [MiTMAB] |  |  |  | decrease of extracellular PpIX amount dependent on the concentration of MiTMAB | increase of intracellular PpIX amount dependent on the concentration of MiTMAB |  |  |
| CCCCCCCCCCCCCCCCCC[N+](C)(C)C.[Br-] [OcTMAB] |  |  |  | decrease of extracellular PpIX amount dependent on the concentration of OcTMAB | increase of intracellular PpIX amount dependent on the concentration of OcTMAB | effect similar to ETC for suppressing PpIX extracellular export | increased intracellular PpIX similar to or more than the ALA and ETC combination use group |
| CCCCCCCCCCCCCCCCCC[N+](C)(C)CCN1C(=O)[C@@H]2[C@H](C1=O)[C@H]1CC[C@@H]2O1.[Br-] [RTIL13] |  |  | ~10 | decrease of extracellular PpIX amount dependent on the concentration of RTIL13 | increase in the amount of PpIX accumulated |  |  |
| N=c1oc2c(O)c(O)ccc2cc1C(=O)NCCCNC(=O)c1cc2ccc(O)c(O)c2oc1=N [iminodyn22] |  |  |  | no change in the intracellular and extracellular PpIX amounts | no change in the intracellular and extracellular PpIX amounts |  |  |
